Measured values reported in patent US20250092369A1, “METHOD FOR IMPROVING TRANSCYTOSIS PROPERTIES OF HUMAN BLOOD-BRAIN BARRIER MODEL” (Wisconsin Alumni Research Foundation, priority 2023, published 2025).

Tests used:
[1] = test system: gene-edited PB-TRE-N1ICD hPSC-EPCs; assay: Fluorescent albumin accumulation assay in gene-edited PB-TRE-N1ICD hPSC-EPCs; type: cell-based, human; conditions: PBS-treated 10(+CR2) cells, 30 min pretreatment: 3 mM MβCD, 20 µM CPZ or 2 μM rottlerin
Description: Fixable, Alexa Fluor 647-conjugated bovine serum albumin (BSA) (Invitrogen) was used as a substrate to estimate total fluid-phase endocytosis. […] Similarly, D6 cultures of HUVECs treated with GFP or N1ICD LV were pre-treated with or without 3 mM MβCD for 30 min at 37° C. Cells were washed once with sterile DPBS and then incubated in hECSR (for hPSC-EPCs) supplemented with 5 μg/mL BSA or 1:1000 diluted DPBS, 1:100 diluted CD144-FITC or FITC isotype control antibody, and 4 μM Hoechst 33342 (Life Technologies) or EGM-2 media (for HUVECs) supplemented with 5 μg/mL BSA or 1:1000 diluted DPBS and 4 μM Hoechst 33342 at 4° C. or 37° C. for 2 h on a rotating platform at 30 rpm, protected from light. Cells were then washed 3 times with 4° C. sterile DPBS to stop the assay and wash away any extracellular BSA. Internalization of fluorescent BSA was visualized using an Eclipse Ti2-E epifluorescence microscope (Nikon, Tokyo, Japan) with a 20× objective.
Flow cytometry was used to quantify accumulated BSA fluorescence within cells. […] FITC emission was detected with a 530/30 filter and AlexaFluor 647 emission was detected with a 670/14 filter. Data were analyzed with Flow Jo software.

hPSC-EPCs = conditions: CHIR supplemented in hPSC-EPCs culture medium; cited from earlier work
[2] = test system: gene-edited PB-TRE-N1ICD hPSC-EPCs; assay: RT-qPCR of BBB-related genes in gene-edited PB-TRE-N1ICD hPSC-EPCs + CHIR ± doxycycline; type: cell-based, human
Description: Gene-edited hPSC-derived EPCs (D5) with high post-MACS purity validated by flow cytometry were cultured on collagen IV-coated plates at approximately 4×10^4 cells/cm^2 in hECSR medium supplemented with various antibiotics, with media changes every other day. […] […] On D15, cells were collected for RT-qPCR quantification of differential gene expression between doxycycline and DPBS-treated gene-edited hPSC-EPCs.
RNA extraction was performed using the Direct-zol RNA Miniprep Kit (Zymo Research). Cells were lysed with 300-600 μL TRIzol reagent (Invitrogen, Waltham, MA) depending on the estimated cell count per sample. Cell lysates were combined with an equal volume of 100% ethanol and transferred to Zymo-Spin IICR spin columns. Columns were incubated with Rnase-free DNase I (Qiagen) to eliminate residual gDNA. Columns were washed with RNA Wash Buffer and Direct-zol RNA Pre-Wash according to Zymo RNA Miniprep Kit protocols. RNA was eluted with RNase-free water and concentration was determined using a NanoDrop 2000 spectrophotometer (Thermo Scientific). 250-1000 ng of RNA was reverse transcribed for 1 h at 37° C. using the OmniScript RT Kit (Qiagen). 1 U/μL RNaseOUT (Life Technologies) was included in the reverse-transcription reactions. Reaction products were diluted to 10 ng/μL. 20 μL qPCR reactions were carried out with 10 ng cDNA and 500 nM each forward and reverse primers (Integrated DNA Technologies, Coralville, IA [Table 1]) using PowerUp SYBR Green Master Mix (Life Technologies) or 1×Taqman Gene Expression Assay probes (Thermo Scientific [Table 1]) using Taqman Fast Advanced Master Mix (Thermo Scientific). Reactions were run on an AriaMx Real-Time PCR System (Agilent Technologies, Santa Clara, CA) using the thermal cycling program corresponding to either IDT primers or Taqman probes. An annealing temperature of 60° C. was used for all reactions.

[3] = test system: gene-edited PB-TRE-N1ICD 10(+CR2) hPSC-EPCs; assay: FACS of CD144 (VE-cadherin) subpopulations in gene-edited 10(+CR2) hPSC-EPCs; type: cell-based, human; conditions: doxycycline-treated population, D15
Description: Gene-edited PB-TRE-N1ICD hPSC-EPCs were cultured in a 6-well plate with or without doxycycline as described above (n=3* replicates for doxycycline supplemented condition, n=4 replicates for PBS supplemented condition). On D15, cells were isolated with Accutase (incubated 15 mins at 37° C., 1 mL/well), triturated, and quenched through a 40 μm cell strainer into 4× the volume of DMEM (Life Technologies) supplemented with 10% FBS (R&D Systems). An additional well of gene-edited EPCs cultured with PBS was reserved as an isotype control. Unedited hPSCs maintained in E8 medium and unedited hPSC-EPCs cultured for 6 days in hECSR supplemented with 4 μM CHIR were used as an additional negative and positive control, respectively, for FACS. Cell count was quantified using a hemocytometer and cells were centrifuged at 200×g for 5 min. Cells were resuspended in MACS buffer at a concentration of 100 μL/10^6 cells. Cells suspensions were supplemented with CD144-APC or APC-conjugated isotype control antibodies (Table 2) at a 1:50 dilution for at 4° C. for 20 min, protected from light. Cells were washed with 2 mL MACS buffer and centrifuged at 200×g for 5 min. Pellets were resuspended in 400 μL each of MACS buffer supplemented with 1 μg/mL DAPI (Invitrogen) and incubated at 4° C., protected from light.
Cells were sorted using the BD FACSAria III Cell Sorter (BD Biosciences). Gates for high or low CD144-expressing cells were determined based on two negative controls (gene-edited PB-TRE-N1ICD hPSC-derived ECs stained with APC isotype control antibody or unedited hPSCs stained with CD144-APC antibody, both negative for CD144) and one positive control (unedited hPSC-EPCs cultured with CHIR, CD144 high). After establishing gates, live gene-edited PB-TRE-N1ICD hPSC-ECs treated with or without doxycycline were sorted into tubes containing 500 μL MACS buffer and stored at 4° C.

[4] = test system: gene-edited PB-TRE-N1ICD 10(+CR2) hPSC-EPCs; assay: Bulk RNA-sequencing of FACS-sorted gene-edited 10(+CR2) hPSC-EPC subpopulations; type: cell-based, human
Description: Ten PBS or doxycycline-treated gene-edited PB-TRE-N1ICD hPSC-derived endothelial cell subpopulations obtained via FACS were centrifuged at 200×g for 5 min. Pellets were resuspended TRIzol reagent (Invitrogen) for extraction of total RNA. RNA concentrations were quantified using the Qubit 4 Fluorometer (Invitrogen) and Qubit RNA High Sensitivity Assay Kit (Invitrogen). Purified RNA samples (≥200 ng) were sent to Novogene Corporation (Sacramento, CA) for library preparation and mRNA sequencing, with approximately 40-60 million paired end reads obtained per sample. FASTQ files were uploaded to the Galaxy^43 web platform and processed to generate a raw counts matrix using the publicly available bioinformatics server at usegalaxy.org. We ran FastQC to ensure high Phred quality scores and low percentages (<5%) adapter content (Galaxy). Illumina Universal Adapter sequences were trimmed from raw sequencing reads using Cutadapt (Galaxy). Data were aligned to the hg38 genome model using RNA STAR and raw reads per gene were determined using featureCounts. Differential expression analysis was performed in R using DESeq2^44. Heatmaps containing TPM values were generated using the pheatmap package in R. Comparison of the transcriptomic profile of […] overexpressing EPCs±Dox subpopulations to transcriptomes of established cell and tissue types was performed with […]^45.

[5] = test system: gene-edited PB-TRE-N1ICD 10(+CR2) hPSC-EPCs; assay: Transendothelial electrical resistance (TEER); type: cell-based, human; conditions: Dox-treated edited hPSC-EPCs at end of culture (D15), doxycycline D11-D15
[6] = test system: heterogeneous gene-edited hPSC-EPCs; assay: CD31 flow cytometry in heterogeneous gene-edited hPSC-EPCs, hygromycin/doxycycline timing; type: cell-based, human; conditions: 6 days of hygromycin reselection followed by 4 days of doxycycline treatment
Description: To determine CD31 expression in edited hPSC-EPCs treated with doxycycline vs. DPBS (FIG. 15A,B), hPSC-ECs were isolated at day 13, 15, or 17, dissociated with Accutase as previously stated, quenched in DMEM supplemented with 10% FBS through a cell strainer, centrifuged, and resuspended in MACS buffer (100 μL/10^6 cells) supplemented with CD31-APC or APC isotype control antibodies at a 1:50 dilution. Cells were incubated at 4° C. for 20 min, protected from light. Cells were washed with 2 mL MACS buffer and centrifuged at 200×g for 5 min. Pellets were resuspended in 500 μL each of 4% PFA in DPBS and incubated 15 min at room temperature, protected from light. Cells were centrifuged at 200×g for 5 min and pellets were resuspended in 400 μL MACS buffer. Samples were run on an Attune NxT V6 flow cytometer with excitation at 633 nm. APC emission was detected with a 670/14 filter. Data were analyzed with Flow Jo software.

[7] = clone 10(+CR2), 6d H+4d D, 1 μg/mL doxycycline vs PBS, D15
[8] = clone 10(+CR2), 6d P+4d D vs PBS control

CC(=O)c1c(O)c(C)c(O)c(Cc2c(O)c3c(c(C(=O)/C=C/c4ccccc4)c2O)OC(C)(C)C=C3)c1O [rottlerin]
fluorescent albumin accumulation after endocytosis inhibitor pretreatment [1]: but not with rottlerin

Cc1c[nH]c(-c2cnc(NCCNc3ccc(C#N)cn3)nc2-c2ccc(Cl)cc2Cl)n1 [CHIR, CHIR99021]
increase in normalized SLC2A1 expression (TPM) (hPSC-EPCs): ~750 fold

C[C@H]1c2cccc(O)c2C(=O)C2=C(O)[C@]3(O)C(=O)C(C(N)=O)=C(O)[C@@H](N(C)C)[C@@H]3[C@@H](O)[C@@H]21 [doxycycline, doxycycline hyclate]
decrease in CDH5 expression ([2]; clone 3(+Y) hPSC-EPCs, highest doxycycline dose, D11-D15): ~2 fold | downregulation of TJP1 ([2]; clone 10(+CR2), 2d P+4d D+4P vs PBS control): ~2 fold | upregulation in MFSD2A ([2]; clone 10(+CR2), 6d H+4d D and 6d P+4d D vs PBS control (6d H+4d P), D15): 60- to 100 fold | decrease in expression of CDH5 [2, 7]: ~3 fold | increase in MFSD2A expression [2, 7]: ~50 fold | increase in SLC2A1 expression [2, 7]: > 20 fold | increase in expression of ABCB1 [2, 7]: ~2 fold | increase in expression of ABCC1 [2, 7]: ~2 fold | increase in expression of ABCG2 [2, 7]: ~2 fold | upregulation in N1ICD expression [2, 7]: ~8 fold | increase in CDH2 ([2]; clone 10(+CR2), 6d P+4d D and 2d P+4d D+4P vs PBS control): ~2 fold | increase in ABCC1 [2, 8]: 7 fold | increase in ABCG2 [2, 8]: 4 fold | increase in FN1 [2, 8]: ~12 fold | upregulation of CLDN5 [2, 8]: ~2 fold | reduction in CDH5 ([2]; clone 10(+CR2), 6d P+4d D vs PBS control, significant): ~2 fold | reduction in CDH5 ([2]; clone 10(+CR2), other doxycycline-treated conditions vs PBS control, non-significant): ~1.7 fold | cells with high CD144 expression [3]: ~25% | cells with low but not absent CD144 expression [3]: ~65% | CD144+ cells ([3]; live cells): ~90% | increase in NOTCH1 expression (TPM) ([4]; Dox CD144 hi vs PBS CD144 hi): ~2 fold | increase in NOTCH1 expression (TPM) ([4]; Dox CD144 lo vs PBS CD144 hi): ~7 fold | average TEER [5]: less than 10 Ω·cm^2 | percentage of CD31+ cells [6]: ~90%
